Test results: PMC11477000, “Enantioselective Binding of Proton Pump Inhibitors to Alpha1-Acid Glycoprotein and Human Serum Albumin—A Chromatographic, Spectroscopic, and In Silico Study” (International Journal of Molecular Sciences, 2024)
Each block holds one compound with its values, some of them ahead of it.

What was measured:
[1] = molecular target: human serum albumin (HSA) (Homo sapiens, UniProt P02768); test: HPLC on HSA-based chiral stationary phase (Daicel Chiralpak HSA column); format: binding; details: for k1 retention factor (first-eluting enantiomer) / k2 retention factor (second-eluting enantiomer): HSA column, 10 mM pH 7 phosphate buffer, 25 °C
Sequence of human serum albumin (HSA) (P02768 25-609): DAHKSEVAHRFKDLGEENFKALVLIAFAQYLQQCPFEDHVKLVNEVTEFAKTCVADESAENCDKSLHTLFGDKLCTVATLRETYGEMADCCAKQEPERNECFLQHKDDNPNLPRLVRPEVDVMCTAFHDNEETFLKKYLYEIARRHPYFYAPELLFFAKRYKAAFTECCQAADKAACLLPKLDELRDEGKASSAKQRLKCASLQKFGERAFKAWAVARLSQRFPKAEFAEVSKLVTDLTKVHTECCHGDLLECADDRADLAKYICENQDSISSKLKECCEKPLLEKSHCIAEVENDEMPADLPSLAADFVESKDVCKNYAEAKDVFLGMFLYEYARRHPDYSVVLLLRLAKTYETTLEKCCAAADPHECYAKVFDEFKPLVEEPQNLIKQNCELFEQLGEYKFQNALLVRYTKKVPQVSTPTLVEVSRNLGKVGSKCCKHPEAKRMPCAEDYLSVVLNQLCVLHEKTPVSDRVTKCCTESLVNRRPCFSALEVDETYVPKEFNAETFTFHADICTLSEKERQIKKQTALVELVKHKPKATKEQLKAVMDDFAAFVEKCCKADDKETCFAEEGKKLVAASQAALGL
Procedure: (§1) HPLC using a protein-based chiral stationary phase is a fully automated method for obtaining rapid information about the binding of compounds to the respective proteins. Enantioseparation occurs in the case of unequal binding constants of the individual enantiomers to the immobilized proteins, thus allowing enantioselective binding to be characterized even when a racemic mixture was injected. As a preliminary step, the enantiospecific binding was investigated on columns containing AGP and HSA in various alcohol:buffer mixtures. A pH 7 phosphate buffer was employed as the aqueous part of the mobile phase, while for the organic part, three different alcohols were evaluated.
In the following step, we investigated the effect of changing some other chromatographic conditions on the protein binding. The pH of the aqueous phase influenced the protonation state of both the analyte and the proteins. It should be noted that the pH tolerance of protein-based columns is narrow due to the possible denaturation of proteins. Taking into account the guidelines of the manufacturer, three different pH values were investigated (pH 6, 6.5, and 7) at a 95:5 (v/v%) buffer:IPA eluents ratio [49]. The buffer was uniformly 10 mM phosphate. […] The effect of different buffer constituents was also evaluated. In addition to phosphate buffer, ammonium acetate, ammonium bicarbonate, and sodium citrate were tested and compared under the same conditions.
(§2) Chromatographic measurements were carried out on two separate HPLC systems. The AGP binding study was performed on a Waters 2695e chromatographic system paired with a Waters 2996 PDA detector, controlled by Empower 3 FR5 (Waters Corp., Milford, MA, USA), while the HSA binding study was performed on an Agilent 1100 HPLC system, consisting of an inline degasser (G1322A), a quaternary pump (G1311A), an automatic injector (G1329A) paired with sample thermostat (G1330A), a column thermostat (G1316A), and a diode array detector (G1315A) with Agilent Chemstation B04.03-SP2 software (Agilent, Bronnwald, Germany). For the binding studies, two protein-based chiral stationary phases were utilized. The chromatographic binding study for AGP was conducted on a ChromTech Chiral-AGP column (150 mm × 4.0 mm; ChromTech Ltd., Congleton, UK), while the binding study for HSA was performed on a Daicel Chiralpak HSA column (50 mm × 4.0 mm; Daicel Corp., Osaka, Japan). The detection wavelength was 210 nm for all measurements. The stock solutions of PPIs were prepared at a concentration of 1 mg/mL in MeOH. Subsequent dilutions were prepared using water. The injected samples were mixed and diluted from the stock solutions. The final concentration for the eutomer was 0.2 mg/mL, and for the distomer, it was 0.1 mg/mL. A volume of 2 μL was injected. To mitigate the instability of PPIs in aqueous solutions, the samples were kept at a temperature of 4 °C.

[2] = test system: α1-acid glycoprotein (AGP); test: HPLC on AGP-based chiral stationary phase (ChromTech Chiral-AGP column); format: binding, human; details: 10 mM pH 7 phosphate buffer, 25 °C
Procedure: as §1, with “evaluated. […]” for “evaluated.”
as §2

SMILES: Cc1c(OCC(F)(F)F)ccnc1C[S@+]([O-])c1nc2ccccc2[nH]1 [S-lansoprazole]
- Affinity to HSA compared to the antipode ([1]; based on the elution order of enantiomers on the HSA column): higher affinity

- k1 retention factor (first-eluting enantiomer) ([1]; 1% EtOH): 6.16
- k2 retention factor (second-eluting enantiomer) ([1]; 1% EtOH): 6.16
- k1 retention factor (first-eluting enantiomer) ([1]; 1% IPA): 7.21
- k2 retention factor (second-eluting enantiomer) ([1]; 1% IPA): 7.21
- k1 retention factor (first-eluting enantiomer) ([1]; 1% MeOH): 6.61
- k2 retention factor (second-eluting enantiomer) ([1]; 1% MeOH): 6.61
- k1 retention factor (first-eluting enantiomer) ([1]; 2.5% EtOH): 3.97
- k2 retention factor (second-eluting enantiomer) ([1]; 2.5% EtOH): 3.97
- k1 retention factor (first-eluting enantiomer) ([1]; 2.5% IPA): 5.45
- k2 retention factor (second-eluting enantiomer) ([1]; 2.5% IPA): 5.45
- k1 retention factor (first-eluting enantiomer) ([1]; 2.5% MeOH): 5.08
- k2 retention factor (second-eluting enantiomer) ([1]; 2.5% MeOH): 5.08
- k1 retention factor (first-eluting enantiomer) ([1]; 5% EtOH): 2.87
- k2 retention factor (second-eluting enantiomer) ([1]; 5% EtOH): 2.87
- k1 retention factor (first-eluting enantiomer) ([1]; 5% IPA): 3.32
- k2 retention factor (second-eluting enantiomer) ([1]; 5% IPA): 3.32
- k1 retention factor (first-eluting enantiomer) ([1]; 5% MeOH): 3.68
- k2 retention factor (second-eluting enantiomer) ([1]; 5% MeOH): 3.68
- k1 retention factor (first-eluting enantiomer) ([1]; 7.5% EtOH): 2.16
- k2 retention factor (second-eluting enantiomer) ([1]; 7.5% EtOH): 2.16
- k1 retention factor (first-eluting enantiomer) ([1]; 7.5% IPA): 2.37
- k2 retention factor (second-eluting enantiomer) ([1]; 7.5% IPA): 2.37
- k1 retention factor (first-eluting enantiomer) ([1]; 7.5% MeOH): 2.95
- k2 retention factor (second-eluting enantiomer) ([1]; 7.5% MeOH): 2.95
- k1 retention factor (first-eluting enantiomer) ([1]; 10% EtOH): 1.66
- k2 retention factor (second-eluting enantiomer) ([1]; 10% EtOH): 1.66
- k1 retention factor (first-eluting enantiomer) ([1]; 10% IPA): 1.79
- k2 retention factor (second-eluting enantiomer) ([1]; 10% IPA): 1.79
- k1 retention factor (first-eluting enantiomer) ([1]; 10% MeOH): 2.34
- k2 retention factor (second-eluting enantiomer) ([1]; 10% MeOH): 2.34
- k1 retention factor (first-eluting enantiomer) ([1]; 12.5% IPA): 1.37
- k2 retention factor (second-eluting enantiomer) ([1]; 12.5% IPA): 1.37
SMILES: COCCCOc1ccnc(C[S+]([O-])c2nc3ccccc3[nH]2)c1C (stereo not drawn) [Rabeprazole, rabeprazole]
- k1 retention factor (first-eluting enantiomer) ([2]; 2.5% IPA): 14.89
- k2 retention factor (second-eluting enantiomer) ([2]; 2.5% IPA): 21.66
- k1 retention factor (first-eluting enantiomer) ([2]; 5% EtOH): 13.04
- k2 retention factor (second-eluting enantiomer) ([2]; 5% EtOH): 20.84
- k1 retention factor (first-eluting enantiomer) ([2]; 5% IPA): 6.68
- k2 retention factor (second-eluting enantiomer) ([2]; 5% IPA): 7.89
- k1 retention factor (first-eluting enantiomer) ([2]; 5% MeOH): 20.89
- k2 retention factor (second-eluting enantiomer) ([2]; 5% MeOH): 42.82
- k1 retention factor (first-eluting enantiomer) ([2]; 7.5% EtOH): 7.21
- k2 retention factor (second-eluting enantiomer) ([2]; 7.5% EtOH): 10.50
- k2 retention factor (second-eluting enantiomer) ([2]; 7.5% IPA): 3.90
- k1 retention factor (first-eluting enantiomer) ([2]; 7.5% MeOH): 12.90
- k2 retention factor (second-eluting enantiomer) ([2]; 7.5% MeOH): 26.14
- k1 retention factor (first-eluting enantiomer) ([2]; 10% EtOH): 4.39
- k2 retention factor (second-eluting enantiomer) ([2]; 10% EtOH): 5.89
- k1 retention factor (first-eluting enantiomer) ([2]; 10% IPA): 2.47
- k2 retention factor (second-eluting enantiomer) ([2]; 10% IPA): 2.47
- k1 retention factor (first-eluting enantiomer) ([2]; 10% MeOH): 8.63
- k2 retention factor (second-eluting enantiomer) ([2]; 10% MeOH): 16.71
- k1 retention factor (first-eluting enantiomer) ([2]; 12.5% IPA): 1.72
- k2 retention factor (second-eluting enantiomer) ([2]; 12.5% IPA): 1.72
- k1 retention factor (first-eluting enantiomer) ([2]; 15% EtOH): 2.11
- k2 retention factor (second-eluting enantiomer) ([2]; 15% EtOH): 2.48
- k1 retention factor (first-eluting enantiomer) ([2]; 15% IPA): 1.27
- k2 retention factor (second-eluting enantiomer) ([2]; 15% IPA): 1.27
- k1 retention factor (first-eluting enantiomer) ([2]; 15% MeOH): 5.97
- k2 retention factor (second-eluting enantiomer) ([2]; 15% MeOH): 11.00
